Common to all, as to experiment: inhibition of tumour cell growth, NCI panel, 48 h
Experiment [1] concerns IGROV-1.
For experiment [2], the system named is OVCAR-4.
Experiment [3] concerns NCI-H522.
Experiment [4] has as its system A549.
The test system of experiment [5] is LOX IMVI.
Experiment [6] concerns 786-0.
Experiment [7] relates to RXF 393.
Experiment [8] concerns HCC 2998.
Experiment [9] has as its system SK-MEL-2.
Experiment [10] concerns HCT-15.
In experiment [11] the test system is HL-60.
The subject of experiment [12] is ACHN.
Experiment [13] concerns MCF7.
Experiment [14] relates to OVCAR-8.
For experiment [15], the system named is U-251.
For experiment [16], the system named is SF-268.
Experiment [17] deals with OVCAR-3.
Experiment [18] has as its system HCT-116.
Experiment [19] relates to Hs-578T.
The test system of experiment [20] is CAKI-1.

The structures appear in SMILES notation.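 Cells were grown in 96-well plates and exposed to each compound for 48 hours at five concentrations; endpoints were interpolated linearly between bracketing concentrations, or set to the highest concentration if not reached. Here, GI50 denotes the concentration required for 50% inhibition of growth.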 Calls of active or inactive are those of the source. Rule as the data show it: active = GI50 up to about 1.1 µM and inactive = higher.

These results are taken from ChEMBL document CHEMBL1201862, “PubChem BioAssay data set” (2004).

For `CC(=O)Nc1ccc(S(=O)(=O)N=S(C)C)cc1`, the GI50 in experiment [1], in experiment [2], in experiment [3], in experiment [4], in [5] and in experiment [6] was > 100 µM (inactive) throughout. In addition, the GI50 in experiment [7] was > 100 µM (inactive); in experiment [8], > 100 µM (inactive); in experiment [9], > 100 µM (inactive); in experiment [10] it was more than 100 µM; in experiment [11], > 100 µM (inactive); in experiment [12], > 100 µM (inactive). Also, the GI50 in experiment [13], in [14], in experiment [15], in experiment [16], in [17] and in [18] was > 100 µM (inactive) in each case. Also, the GI50 in experiment [19] and in [20] was > 100 µM (inactive) in each case.
On to `Cn1ncc2c(Nc3cccc(Cl)c3)nc(Nc3cccc(Cl)c3)nc21`, for which the GI50 in experiment [1] was 12.2 µM (inactive); in experiment [2], 11.9 µM (inactive); in experiment [3], 8.93 µM (inactive); in experiment [4], 8.11 µM (inactive); in experiment [5], 5.82 µM (inactive); in [6] it was 2.43 µM (inactive). In addition, the GI50 in experiment [7] was 3.48 µM (inactive); in experiment [8] it was 8.93 µM (inactive); in experiment [9], 14.9 µM (inactive); in experiment [10], 4.43 µM; in experiment [11], 7.94 µM (inactive); in experiment [12], 10.5 µM (inactive). Moreover, the GI50 in [13] is 4.68 µM (inactive); in experiment [14], 10.9 µM (inactive); in experiment [15], 8.04 µM (inactive); in experiment [16], 14.1 µM (inactive); in [17], 18.5 µM (inactive); in experiment [18], 11.4 µM (inactive). The GI50 in experiment [19] was 12 µM (inactive); in [20], 7.6 µM (inactive).
Take `O=C1C(=O)c2c(oc(=O)c3ccccc23)-c2ccccc21`: the GI50 in [1] is > 25 µM (inactive); in experiment [2], 6.5 µM (inactive); in experiment [3], 21.2 µM (inactive); in [4] it was > 25 µM (inactive); in [5], 16.9 µM (inactive); in experiment [6], > 25 µM (inactive). The GI50 is > 25 µM (inactive) in experiment [7]; 13.9 µM (inactive) in experiment [8]; > 25 µM (inactive) in experiment [9]; 17.6 µM in experiment [10]; 8.11 µM (inactive) in experiment [11]; > 25 µM (inactive) in experiment [12]. The GI50 is 10.9 µM (inactive) in experiment [13]; 16.4 µM (inactive) in experiment [14]; > 25 µM (inactive) in [15]; > 25 µM (inactive) in [16]; 7.05 µM (inactive) in experiment [17]; 11 µM (inactive) in [18]. Besides, the GI50 in [19] and in [20] was > 25 µM (inactive) throughout.
Turning to `COC(=O)[C@]12CC[C@H]3CN(C(=O)OCc4ccccc4)[C@H]([C@H]31)[C@H](c1ccccc1)N2`, the GI50 in [1] was > 100 µM (inactive); in experiment [2] it was 64.7 µM (inactive); in experiment [3] it was 52.1 µM (inactive); in experiment [4], 54.7 µM (inactive); in experiment [5] it was > 100 µM (inactive); in experiment [6], > 100 µM (inactive). Further, the GI50 was 59.6 µM (inactive) in experiment [7]; > 100 µM (inactive) in experiment [8]; 59.7 µM (inactive) in experiment [9]; 69.3 µM in experiment [10]; 39.6 µM (inactive) in [11]; 92 µM (inactive) in [12]. The GI50 in [13] was 67.6 µM (inactive); in experiment [14], 78.9 µM (inactive); in [15], > 100 µM (inactive); in experiment [16], > 100 µM (inactive); in experiment [17], 74.1 µM (inactive); in experiment [18] it was 65.3 µM (inactive). Besides, the figures for the GI50 in [19] and in [20] were > 100 µM (inactive) and 70.6 µM (inactive), respectively.
`CC(C)N(C(=O)C12C3(C(=O)OC(C)(C)C)C4C5(C#N)C3C1(C(=O)OC(C)(C)C)C5C42C(=O)OC(C)(C)C)C(C)C` (stereo not given): the GI50 in experiment [1] is > 100 µM (inactive); in experiment [2] it was 71.6 µM (inactive); in experiment [3], 35.3 µM (inactive); in experiment [4], 93.5 µM (inactive); in experiment [5] it was 14.4 µM (inactive); in experiment [6] it was 34.6 µM (inactive). Also, the GI50 in [7] is 12.9 µM (inactive); in [8], 97.9 µM (inactive); in [9], > 100 µM (inactive); in experiment [10] it was 89.5 µM; in [11] it was 20.1 µM (inactive); in experiment [12], > 100 µM (inactive). Moreover, the GI50 in experiment [13] is 14.4 µM (inactive); in [14], > 100 µM (inactive); in [15], 83.9 µM (inactive); in experiment [16], > 100 µM (inactive); in experiment [17] it was 47.8 µM (inactive); in [18], 19.8 µM (inactive). The GI50 is 28.7 µM (inactive) in experiment [19] and 37.3 µM (inactive) in experiment [20].
As for `CCOC(=O)C(Cl)(NC(=O)c1c(F)c(F)c(F)c(F)c1F)C(F)(F)F` (stereo not given), the GI50 in experiment [1] was > 100 µM (inactive); in experiment [2], > 100 µM (inactive); in experiment [3] it was 19.5 µM (inactive); in [4], > 100 µM (inactive); in experiment [5], > 100 µM (inactive); in experiment [6] it was > 100 µM (inactive). Moreover, the GI50 in experiment [7] is > 100 µM (inactive); in [8], > 100 µM (inactive); in experiment [9], > 100 µM (inactive); in experiment [10], more than 100 µM; in [11], 22.1 µM (inactive); in [12], > 100 µM (inactive). The GI50 in experiment [13], in experiment [14], in experiment [15], in experiment [16], in experiment [17] and in experiment [18] was > 100 µM (inactive) in each case. The GI50 in experiment [19] was > 100 µM (inactive); in experiment [20], 20 µM (inactive).
